Experimental data: ChEMBL document CHEMBL2311316, “Synthesis and biological evaluation of ¹⁸F labeled fluoro-oligo-ethoxylated 4-benzylpiperazine derivatives for sigma-1 receptor imaging” (Bioorg Med Chem, 2013)
pKi: −log10 of the molar value.

Assays:
Rattus norvegicus = organism: Rattus norvegicus; assay: Selectivity index, ratio of Ki for sigma2 receptor in rat liver membranes to Ki for sigma1 receptor in rat brain membranes; assay type: cell membranes
[1] = Displacement of [3H]ditolyguanidine from sigma2 receptor in rat liver membranes; assay type: cell membranes, Membrane
[2] = biological target: Sigma non-opioid intracellular receptor 1 (Rattus norvegicus, UniProt Q9R0C9); assay: Displacement of (+)-[3H]pentazocine from sigma1 receptor in rat brain membranes; assay type: cell membranes
Sigma non-opioid intracellular receptor 1, sequence (Q9R0C9 whole entry): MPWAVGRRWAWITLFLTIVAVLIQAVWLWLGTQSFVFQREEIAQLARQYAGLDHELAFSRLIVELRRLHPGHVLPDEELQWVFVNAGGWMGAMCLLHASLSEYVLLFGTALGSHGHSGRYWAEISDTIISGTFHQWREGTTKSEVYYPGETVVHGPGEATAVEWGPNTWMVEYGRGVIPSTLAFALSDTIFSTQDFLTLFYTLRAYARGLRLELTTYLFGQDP

[3] = biological target: T1, Vesicular acetylcholine transporter (Homo sapiens, UniProt Q16572); assay: Binding affinity to VAChT (unknown origin)
T1 sequence (Q16572 whole entry): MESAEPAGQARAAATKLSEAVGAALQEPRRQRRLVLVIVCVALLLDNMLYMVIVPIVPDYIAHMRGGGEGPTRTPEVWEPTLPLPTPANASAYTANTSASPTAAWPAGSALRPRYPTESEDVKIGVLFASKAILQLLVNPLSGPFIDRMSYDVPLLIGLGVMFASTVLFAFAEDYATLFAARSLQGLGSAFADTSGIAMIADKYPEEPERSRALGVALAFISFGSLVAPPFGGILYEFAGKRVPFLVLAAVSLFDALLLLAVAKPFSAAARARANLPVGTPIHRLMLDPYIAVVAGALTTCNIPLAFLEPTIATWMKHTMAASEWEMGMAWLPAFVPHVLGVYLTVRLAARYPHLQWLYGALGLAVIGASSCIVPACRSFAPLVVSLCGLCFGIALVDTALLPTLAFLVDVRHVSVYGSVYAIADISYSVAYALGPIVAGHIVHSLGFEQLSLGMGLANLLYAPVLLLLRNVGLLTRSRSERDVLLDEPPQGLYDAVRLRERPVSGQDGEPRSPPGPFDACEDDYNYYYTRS

Brain = assay: Specific drug uptake in ICR mouse brain at 4 uCi, iv measured 60 mins post dose; assay type: ADME, organism-based; conditions: in vivo, 1 h

| Structure (SMILES) | Ratio Ki (Rattus norvegicus) | pKi [1] | pKi [2] | pKi [3] | Drug uptake (Brain) [%] |
| --- | --- | --- | --- | --- | --- |
| O=C(CCCN1CCC(O)(c2ccc(Cl)cc2)CC1)c1ccc(F)cc1 [HALOPERIDOL] |  | 7.68 |  |  |  |
| [17F]CCC1OC2(CCN(Cc3ccccc3)CC2)c2ccccc21 (configuration not stated) [[18F]FLUSPIDINE] |  |  |  | 6.68 | 62 |

Second part, led by results:

| Ratio Ki (Rattus norvegicus) | pKi [1] | pKi [2] | Structure (SMILES) | pKi [3] | Drug uptake (Brain) [%] |
| --- | --- | --- | --- | --- | --- |
| 16.4 | 6.18 | 7.39 | FCCOCCOc1ccc(CN2CCN(Cc3ccc4c(c3)OCO4)CC2)cc1 |  |  |
| 157 | 6.54 | 8.73 | FCCOc1ccc(CN2CCN(Cc3ccc4c(c3)OCO4)CC2)cc1 |  |  |
| 2.81 | 5.85 | 6.30 | FCCOCCOCCOc1ccc(CN2CCN(Cc3ccc4c(c3)OCO4)CC2)cc1 |  |  |
